The record followed here is patent US9650395B2, “Antibacterial compounds and methods for use” (PTC Therapeutics, Inc., priority 2011, dated 2017).

SMILES strings stand for the structures. Converted amounts (≈) assume the structure as drawn. Like-named read-outs stand apart in the source and are kept apart here. Where only a bound is given, the exact number is not on record here.

Experiment [1] concerns super sensitive Gram-negative Escherichia coli (E. coli) BAS849. Nature of the experiment: Antibacterial activity, microbroth dilution MIC, E. coli BAS849. Conditions: Escherichia coli, read-out: MIC, BAS849. Type of experiment: cell-based.
Experiment [2] deals with control Gram-negative E. coli 25922 strain. Nature of the experiment: Antibacterial activity, microbroth dilution MIC, E. coli 25922. As to conditions: Escherichia coli; E. coli 25922, microbroth dilution; read-out: MIC, 25922. Type of experiment: cell-based, Escherichia coli.
For experiment [3], the system named is Gram-positive Staphylococcus aureus (S. aureus) 29213. The experiment can be described thus: Antibacterial activity, microbroth dilution MIC, S. aureus 29213. Conditions: Staphylococcus aureus; S. aureus 29213, microbroth dilution; read-out: MIC, 29213. Type of experiment: cell-based.
Experiment [4] has as its system quinolone resistant E. coli LZ3111. The experiment can be described thus: Antibacterial activity, MIC, quinolone resistant E. coli LZ3111. Type of experiment: cell-based, Escherichia coli. As to conditions: Escherichia coli, read-out: MIC, LZ3111. From the text: (§1) The antibacterial activity from a microbroth dilution method may be presented as the minimum inhibitory concentration (MIC in […]). The MIC value is the lowest concentration of a drug which prevents macroscopically visible bacterial growth under test conditions.
Mutations in these regions are known to confer a high level resistance to the quinolone class of antibiotics.

Experiment [5] deals with E. coli ELZ4000 (MDR clinical isolate). The experiment can be described thus: Antibacterial activity, MIC, MDR E. coli ELZ4000. Type of experiment: cell-based, Escherichia coli. As to conditions: Escherichia coli; E. coli ELZ4000, MDR clinical isolate; read-out: MIC ELZ4000.
Experiment [6] has as its system E. coli ELZ4251 (MDR clinical isolate). Nature of the experiment: Antibacterial activity, MIC, MDR E. coli ELZ4251. Format: cell-based, Escherichia coli. As to conditions: Escherichia coli, E. coli ELZ4251, MDR clinical isolate; read-out: MIC ELZ4251.
Experiment [7] has as its system Pseudomonas aeruginosa (P. aeruginosa) 27853. The experiment can be described thus: Antibacterial activity, MIC, P. aeruginosa 27853. Type of experiment: cell-based. Conditions: Pseudomonas aeruginosa, P. aeruginosa 27853; read-out: MIC 27853.
Excerpt: as §1
Antibacterial activity of test compounds against the Gram-negative bacterium Pseudomonas aeruginosa (P. aeruginosa) 27853 is shown in Table 5.

In experiment [8] the test system is Haemophilus influenzae (H. influenzae) 49247. The experiment can be described thus: Antibacterial activity, MIC, H. influenzae 49247. Format: cell-based. Conditions: Haemophilus influenzae; H. influenzae 49247; read-out: MIC 49247. An outline of the steps: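 Antibacterial activity against the Gram-negative organism Haemophilus influenzae strain 49247 was measured by microbroth dilution. The minimum inhibitory concentration (MIC) was taken as the lowest drug concentration that stopped bacterial growth from being visible to the naked eye under the test conditions.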

For experiment [9], the system named is Moraxella catarrhalis (M. catarrhalis) 25238. Nature of the experiment: Antibacterial activity, MIC, M. catarrhalis 25238. Format: cell-based. As to conditions: Moraxella catarrhalis, M. catarrhalis 25238; read-out: MIC 25238.
Experiment [10] relates to Neisseria meningitidis (N. meningitidis) 13090. The experiment can be described thus: Antibacterial activity, MIC, N. meningitidis 13090. Type of experiment: cell-based. Conditions: Neisseria meningitidis; N. meningitidis 13090; read-out: MIC 13090.
The mark [11] stands for this setting: E. coli BAS849, microbroth dilution.

`CCc1cc(C(=O)O)c(=O)[nH]c1-c1ccc(N2CC[C@@H](N(C)C)C2)cc1.O=C(O)C(F)(F)F` [Cpd 150, 6-{4-[(3R)-3-(dimethylamino)pyrrolidin-1-yl]phenyl}-5-ethyl-2-oxo-1,2-dihydropyridine-3-carboxylic acid trifluoroacetate]: the MIC in [1] is < 1 µg/mL; in [2], 1 to 3.5 µg/mL; in experiment [3] it was 12.5 to 150 µg/mL; in experiment [4], 12.5 to 150 µg/mL; in experiment [5], 12.5 to 150 µg/mL; in experiment [6], 12.5 to 150 µg/mL. The MIC in experiment [7] was 12.5 to 150 µg/mL; in experiment [8], < 1 µg/mL; in experiment [9], < 1 µg/mL; in [10], < 1 µg/mL.
For the compound `CCc1cc(C(=O)O)c(=O)[nH]c1-c1ccc(N2CC[C@H](N(C)C)C2)cc1.Cl` [Cpd 151, 6-{4-[(3S)-3-(dimethylamino)pyrrolidin-1-yl]phenyl}-5-ethyl-2-oxo-1,2-dihydropyridine-3-carboxylic acid hydrochloride], the MIC in [1] (setting [11]) was < 1 µg/mL; in experiment [2], 1 to 3.5 µg/mL; in [3], 12.5 to 150 µg/mL; in [4], 12.5 to 150 µg/mL; in [5], 12.5 to 150 µg/mL; in experiment [6], 12.5 to 150 µg/mL. The MIC in experiment [7] is 12.5 to 150 µg/mL; in experiment [8] it was < 1 µg/mL; in experiment [9] it was < 1 µg/mL; in [10], < 1 µg/mL.
Turning to `CCc1cc(C(=O)O)c(=O)[nH]c1-c1ccc(N2CC[C@@H](F)C2)cc1` [Cpd 154, 5-ethyl-6-{4-[(3R)-3-fluoropyrrolidin-1-yl]phenyl}-2-oxo-1,2-dihydropyridine-3-carboxylic acid], the MIC in experiment [1] (setting [11]) was < 1 µg/mL; in experiment [2], 1 to 3.5 µg/mL (≈ 3.03 to 10.6 µM); in experiment [3] it was 3.5 to 12.5 µg/mL (≈ 10.6 to 37.8 µM); in experiment [4], 12.5 to 150 µg/mL (≈ 37.8 to 454 µM); in experiment [5] it was 12.5 to 150 µg/mL (≈ 37.8 to 454 µM); in [6] it was 12.5 to 150 µg/mL (≈ 37.8 to 454 µM). In addition, the MIC in experiment [7] was 12.5 to 150 µg/mL (≈ 37.8 to 454 µM); in experiment [8] it was < 1 µg/mL; in experiment [9] it was < 1 µg/mL; in experiment [10], < 1 µg/mL.
Consider `CCc1cc(C(=O)O)c(=O)[nH]c1-c1ccc(Nc2ccccc2)cc1` [Cpd 155, 5-ethyl-2-oxo-6-[4-(phenylamino)phenyl]-1,2-dihydropyridine-3-carboxylic acid], for which the MIC is < 1 µg/mL in [1] (setting [11]); 1 to 3.5 µg/mL (≈ 2.99 to 10.5 µM) in experiment [2]; 3.5 to 12.5 µg/mL (≈ 10.5 to 37.4 µM) in experiment [3]; 12.5 to 150 µg/mL (≈ 37.4 to 449 µM) in [4]; 12.5 to 150 µg/mL (≈ 37.4 to 449 µM) in experiment [5]; 12.5 to 150 µg/mL (≈ 37.4 to 449 µM) in experiment [6]. Also, the MIC is 12.5 to 150 µg/mL (≈ 37.4 to 449 µM) in [7], < 1 µg/mL in experiment [8], < 1 µg/mL in [9] and < 1 µg/mL in [10].
Consider `CCc1cc(C(=O)O)c(=O)[nH]c1-c1ccc(N2CCC[C@H]2C(=O)O)cc1` [Cpd 157, 6-{4-[(2S)-2-carboxypyrrolidin-1-yl]phenyl}-5-ethyl-2-oxo-1,2-dihydropyridine-3-carboxylic acid], for which the MIC is < 1 µg/mL in experiment [1] (setting [11]); 3.5 to 12.5 µg/mL (≈ 9.82 to 35.1 µM) in experiment [2]; 12.5 to 150 µg/mL (≈ 35.1 to 421 µM) in [3]; 12.5 to 150 µg/mL (≈ 35.1 to 421 µM) in experiment [4]; 12.5 to 150 µg/mL (≈ 35.1 to 421 µM) in [5]; 12.5 to 150 µg/mL (≈ 35.1 to 421 µM) in experiment [6]. Further, the MIC in experiment [7] is 12.5 to 150 µg/mL (≈ 35.1 to 421 µM); in experiment [8], < 1 µg/mL; in experiment [9], < 1 µg/mL; in experiment [10], < 1 µg/mL.
For `CCc1c(-c2ccc(N3CC=CC3)cc2)[nH]c(=O)c(C(=O)O)c1O` [Cpd 302, 6-[4-(2,5-dihydro-1H-pyrrol-1-yl)phenyl]-5-ethyl-4-hydroxy-2-oxo-1,2-dihydropyridine-3-carboxylic acid], the MIC was < 1 µg/mL in experiment [1] (setting [11]); 1 to 3.5 µg/mL (≈ 3.06 to 10.7 µM) in experiment [2]; < 1 µg/mL in experiment [3]; 12.5 to 150 µg/mL (≈ 38.3 to 460 µM) in experiment [4]; 12.5 to 150 µg/mL (≈ 38.3 to 460 µM) in experiment [5]; 12.5 to 150 µg/mL (≈ 38.3 to 460 µM) in experiment [6]. Also, the MIC in experiment [7] is 3.5 to 12.5 µg/mL (≈ 10.7 to 38.3 µM); in [8], < 1 µg/mL; in experiment [9], < 1 µg/mL; in [10], < 1 µg/mL.
`CCc1c(-c2ccc(N3C[C@@H](O)[C@@H](O)C3)cc2)[nH]c(=O)c(C(=O)O)c1O` [Cpd 304, 6-{4-[(3R,4S)-3,4-dihydroxypyrrolidin-1-yl]phenyl}-5-ethyl-4-hydroxy-2-oxo-1,2-dihydropyridine-3-carboxylic acid]: the MIC in experiment [1] (setting [11]) was < 1 µg/mL; in experiment [2], 3.5 to 12.5 µg/mL (≈ 9.71 to 34.7 µM); in [3], 3.5 to 12.5 µg/mL (≈ 9.71 to 34.7 µM); in experiment [4], 12.5 to 150 µg/mL (≈ 34.7 to 416 µM); in [5] it was 12.5 to 150 µg/mL (≈ 34.7 to 416 µM); in experiment [6], 12.5 to 150 µg/mL (≈ 34.7 to 416 µM). For the same compound, the MIC in experiment [7] is 12.5 to 150 µg/mL (≈ 34.7 to 416 µM); in experiment [8], < 1 µg/mL; in [9], < 1 µg/mL; in experiment [10], < 1 µg/mL.
